A word on the EC50: it is the concentration giving half of the maximal effect. Broadly, the AUC(0-inf) is the area under the concentration-time curve extrapolated to infinity. Low values mean low exposure, high ones high exposure. The AUC(0-t) is the area under the concentration-time curve up to a stated or last time point. Low values mean low exposure, high ones high exposure. For orientation: clearance means a measure of how efficiently the substance is removed, as volume per time. Read a high clearance as a high capacity for elimination.

The structures appear in SMILES notation. Some results are limits rather than exact numbers.

This is an account of results in patent US10927118B2, “Inhibitors of influenza virus replication and uses thereof” (SUNSHINE LAKE PHARMA CO., LTD., priority 2017, dated 2021).

For one data set, the system named is virus H1N1 A/Weiss/43. Kind of data set: microbe, parasite or virus in culture. The format is cell-based. Particulars: 120 h; inhibition of CPE of influenza virus A/Weiss/43(H1N1) in MDCK cells, 5 days, CCK-8.
A short description of the next data set: in vivo. Particulars: SD, rat.

Procedure for in vivo: Pharmacokinetic characteristics of the compounds of the invention in SD rats were evaluated. The compounds disclosed herein were administered in form of a saline solution containing 5% DMSO, 5% Kolliphor HS 15 and 90% Saline. For intravenous administration (iv), the animals were administered with a dose of 1 mg/kg, and blood samples (0.3 mL) were collected at the time points of 0.083, 0.25, 0.5, 1.0, 2.0, 5.0, 7.0 and 24 h after drug administration, then each blood sample was processed to separate plasma by centrifugation at 3000 rpm or 4000 rpm for 10 minutes. For oral administration (po), the animals were administered with a dose of 5 mg/kg, and blood samples (0.3 mL) were collected at the time points of 0.25, 0.5, 1.0, 2.0, 5.0, 7.0 and 24 h after drug administration, then each blood sample was processed to separate plasma by centrifugation at 3000 rpm or 4000 rpm for 10 minutes. Plasma samples were collected and stored at −20° C. or −70° C. until LC/MS/MS analysis.

For `O=C(O)C1C2CCC(CC2)C1Nc1nc(-c2c[nH]c3ncncc23)nc(-c2ccccc2)c1F` (racemic) [Example 13, (+/−)-trans-3-((5-fluoro-6-phenyl-2-(7H-pyrrolo[2,3-d]pyrimidin-5-yl)pyrimidin-4-yl)amino)bicyclo[2.2.2]octane-2-carboxylic acid], in the data set with virus H1N1 A/Weiss/43, a half-maximal response (EC50) required 8.68 nM.

In the case of `O=C(O)C1C2CCC(CC2)C1Nc1cc(-c2ccco2)nc(-c2c[nH]c3ncncc23)n1` (racemic) [Example 2, (+/−)-trans-3-((6-(furan-2-yl)-2-(7H-pyrrolo[2,3-d]pyrimidin-5-yl)pyrimidin-4-yl)amino)bicyclo[2.2.2]octane-2-carboxylic acid], in the data set “in vivo” (iv, 1 mg/kg), the AUC(0-inf) stood at 4020 ng·h/mL, the AUC(0-t) was 3190 ng·h/mL and the clearance is 10.7 mL/min/kg. In the data set “in vivo” (po, 5 mg/kg), this compound registered an AUC(0-inf) of 12900 ng·h/mL and an AUC(0-t) of 12700 ng·h/mL. For the same compound, the EC50 in the data set on virus H1N1 A/Weiss/43 amounted to 5.19 nM. `Cn1cc(-c2cc(NC3C4CCC(CC4)C3C(=O)O)nc(-c3c[nH]c4ncncc34)n2)cn1` (racemic) [Example 14, (+/−)-trans-3-((6-(1-methyl-1H-pyrazol-4-yl)-2-(7H-pyrrolo[2,3-d]pyrimidin-5-yl)pyrimidin-4-yl)amino)bicyclo[2.2.2]octane-2-carboxylic acid] had an EC50 in the data set with virus H1N1 A/Weiss/43 of 6.32 nM.

With `O=C(O)C1C2CCC(CC2)C1Nc1cc(-c2cc3ccccc3o2)nc(-c2c[nH]c3ncncc23)n1` (racemic) [Example 11, (+/−)-trans-3-((6-(benzofuran-2-yl)-2-(7H-pyrrolo[2,3-d]pyrimidin-5-yl)pyrimidin-4-yl)amino)bicyclo[2.2.2]octane-2-carboxylic acid], a half-maximal response with virus H1N1 A/Weiss/43 (EC50) required 14.4 nM.

As to `O=C(O)C1C2CCC(CC2)C1Nc1nc(-c2c[nH]c3ncncc23)nc(-c2ccco2)c1F` (racemic) [Example 7, (+/−)-trans-3-((5-fluoro-6-(furan-2-yl)-2-(7H-pyrrolo[2,3-d]pyrimidin-5-yl)pyrimidin-4-yl)amino)bicyclo[2.2.2]octane-2-carboxylic acid], the EC50 in the data set with virus H1N1 A/Weiss/43 came to 4.02 nM. This EC50 lies about 3.6-fold lower than the previous one. Consider `CC(C)n1ccc2c(NC3C4CCC(CC4)C3C(=O)O)nc(-c3c[nH]c4ncncc34)nc21` (racemic) [Example 4, (+/−)-trans-3-((7-isopropyl-7H,7′H-[2,5′-bipyrrolo[2,3-d]pyrimidin]-4-yl)amino) bicyclo[2.2.2]octane-2-carboxylic acid], for which the midpoint of the response in the data set on virus H1N1 A/Weiss/43, the EC50, lay at 6.56 nM.

`O=C(O)C1C2CCC(CC2)C1Nc1cc(-c2ccoc2)nc(-c2c[nH]c3ncncc23)n1` (racemic) [Example 9, (+/−)-trans-3-((6-(furan-3-yl)-2-(7H-pyrrolo[2,3-d]pyrimidin-5-yl)pyrimidin-4-yl)amino)bicyclo[2.2.2]octane-2-carboxylic acid]: the EC50 with virus H1N1 A/Weiss/43 was determined as 9.57 nM. Still for that read-out and setting: to `O=C(O)C1C2CCC(CC2)C1Nc1cc(C#Cc2ccccc2)nc(-c2c[nH]c3ncncc23)n1` (racemic) [Example 12, (+/−)-trans-3-((6-(phenylethynyl)-2-(7H-pyrrolo[2,3-d]pyrimidin-5-yl)pyrimidin-4-yl)amino)bicyclo[2.2.2]octane-2-carboxylic acid] belongs 7.24 nM.

`O=C(O)C1C2CCC(CC2)C1Nc1nc(-c2c[nH]c3ncncc23)nc2sccc12` (racemic) [Example 20, (+/−)-trans-3-((2-(7H-pyrrolo[2,3-d]pyrimidin-5-yl)thieno[2,3-d]pyrimidin-4-yl)amino)bicyclo[2.2.2]octane-2-carboxylic acid] yielded an EC50 with virus H1N1 A/Weiss/43 of 19.2 nM. Still for that read-out and setting: to `O=C(O)C1C2CCC(CC2)C1Nc1nc(-c2c[nH]c3ncncc23)ncc1F` (stereo not shown) [Control compound A, reference compound] belongs over 100000 nM; to `O=C(O)C1C2CCC(CC2)C1Nc1nc(-c2c[nH]c3ncncc23)nc2ccccc12` (racemic) [Example 18, (+/−)-trans-3-((2-(7H-pyrrolo[2,3-d]pyrimidin-5-yl)quinazolin-4-yl)amino) bicyclo[2.2.2]octane-2-carboxylic acid], 17.5 nM. Take `Cn1ccc2c(NC3C4CCC(CC4)C3C(=O)O)nc(-c3c[nH]c4ncncc34)nc21` (racemic) [Example 3, (+/−)-trans-3-((7-methyl-7H,7′H-[2,5′-bipyrrolo[2,3-d]pyrimidin]-4-yl)amino)bicyclo[2.2.2]octane-2-carboxylic acid]: in “in vivo” (iv, 1 mg/kg), the total exposure AUC(0-inf) stood at 4320 ng·h/mL, the AUC(0-t) was found to be 4280 ng·h/mL and the clearance amounted to 9.8 mL/min/kg. In addition, in the data set “in vivo” (po, 5 mg/kg), the AUC(0-inf) is 15700 ng·h/mL and the AUC(0-t) was 15600 ng·h/mL. For the same compound, in the data set on virus H1N1 A/Weiss/43, the concentration giving a half-maximal response (EC50) was 9.41 nM.
